Data set [1] has as its target T1, 5-hydroxytryptamine receptor 1A (Homo sapiens) (UniProt P08908).
T1 sequence (whole entry): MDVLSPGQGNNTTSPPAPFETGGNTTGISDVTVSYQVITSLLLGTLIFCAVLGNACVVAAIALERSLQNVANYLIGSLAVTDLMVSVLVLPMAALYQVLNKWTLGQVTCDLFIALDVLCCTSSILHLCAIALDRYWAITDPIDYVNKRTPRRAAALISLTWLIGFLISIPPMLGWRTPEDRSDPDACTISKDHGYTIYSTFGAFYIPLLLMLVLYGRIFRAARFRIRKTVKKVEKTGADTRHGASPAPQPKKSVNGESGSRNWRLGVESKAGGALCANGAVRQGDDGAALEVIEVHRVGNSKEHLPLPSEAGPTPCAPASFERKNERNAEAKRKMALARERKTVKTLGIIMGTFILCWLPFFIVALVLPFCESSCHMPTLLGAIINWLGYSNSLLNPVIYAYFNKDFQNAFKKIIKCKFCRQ
Nature of the data set: Biased agonist activity at human recombinant 5-HT1A receptor stably expressed in CHO-K1 cells assessed as inhibition of forskolin-induced cAMP accumulation after 40 mins by LANCE Ultra cAMP kit-based TR-FRET assay relative to serotonin. It counts as functional, cell-based. The note with it: filed as partial agonist. On the technique in general: Changes in cAMP serve as a functional read-out for many G protein-coupled receptors.

Data set [2] has as its system Rattus norvegicus. In words: Antidepressant-like activity in Wistar rat assessed as reduction in immobility time at 0.63 mg/kg, sc administered 60 mins prior to testing and measured for 5 mins test period by Porsolt-forced swim test. Particulars: time 65 min, 1.083 h. It counts as functional. Also noted: scale not given: the % may be the effect or the level left.
Data set [3] deals with Rattus norvegicus. Nature of the data set: Antidepressant-like activity in Wistar rat assessed as minimum effective dose causing reduction in immobility time after sc administration with compound 60 mins prior to testing and measured for 5 mins test period by Porsolt-forced swim test. Format: functional. Particulars: 1 h, read-out: MED.
Data set [4] addresses T1, 5-hydroxytryptamine receptor 1A (Homo sapiens). In words: Biased agonist activity at human recombinant 5-HT1A receptor stably expressed in CHO-K1 cells assessed as increase in ERK1/2 phosphorylation levels incubated for 15 mins by Alphalisa assay relative to serotonin. It counts as cell-based. The note with it: filed as agonist. On the technique in general: In Alpha technology, singlet oxygen from a donor bead excites a nearby acceptor bead.

Data set [5] in a line: Toxicity in Wistar rat assessed as minimum effective dose causing effect on flat body posture administered subcutaneously with compound and observed after 60 mins post treatment. Particulars: in vivo, sc, 1 h.

Usually Emax stands for the size of the effect at its maximum, as opposed to the concentration needed. `CCCN(CCC)C1CCc2cccc(O)c2C1` (racemic) [8-OH-DPAT]: the values for the Emax in data set [1] and in data set [4] were 63% and 93%, respectively. The Activity in data set [2] stood at 90%. The minimal effective dose in data set [3] worked out at 0.16 mg/kg. Besides, the MED in data set [5] amounted to 0.63 mg/kg.

(Values after ChEMBL document CHEMBL4706479, “Novel Aryloxyethyl Derivatives of 1-(1-Benzoylpiperidin-4-yl)methanamine as the Extracellular Regulated Kinases 1/2 (ERK1/2) Phosphorylation-Preferring Serotonin 5-HT Receptor-Biased Agonists with Robust Antidepressant-like Activity” (J Med Chem, 2019).)
